Common to all, as to type: biochemical
Assay [1] addresses T1, TEM-1 β-lactamase A237W (Escherichia coli, UniProt P62593, A235W). The experiment in a line: PenG acylation kinetics. The conditions noted are these: A237W TEM-1; median [68.25% confidence interval].
The target of assay [2] is T2, TEM-1 β-lactamase A237Y^e (ester) (Escherichia coli, UniProt P62593, A235Y). Nature of the assay: PenG acylation kinetics. As to conditions: A237Y^e (ester) TEM-1; median [68.25% confidence interval].
The target in assay [3] is T3, TEM-1 β-lactamase A237E (Escherichia coli, UniProt P62593, A235E). Nature of the assay: PenG acylation kinetics. The conditions noted are these: A237E TEM-1; median [68.25% confidence interval].
Assay [4] has as its target T4, TEM-1 β-lactamase WT (Escherichia coli, UniProt P62593). The experiment in a line: PenG acylation kinetics.
Assay [5] deals with T5, TEM-1 β-lactamase A237Y (Escherichia coli, UniProt P62593, A235Y). Nature of the assay: PenG acylation kinetics. The conditions noted are these: A237Y TEM-1; median [68.25% confidence interval].
For assay [6], the target named is T6, TEM-1 β-lactamase A237R (Escherichia coli, UniProt P62593, A235R). Nature of the assay: PenG acylation kinetics. As to conditions: A237R TEM-1; median [68.25% confidence interval].
In assay [7] the target is T5, TEM-1 β-lactamase A237Y. The experiment in a line: AVB covalent inhibition kinetics. The conditions noted are these: A237Y TEM-1.
Assay [8] deals with T2, TEM-1 β-lactamase A237Y^e (ester). The experiment in a line: AVB covalent inhibition kinetics. The conditions noted are these: A237Y^e (ester) TEM-1.
Assay [9] relates to TEM-1 β-lactamase A237Y^e (ester). Nature of the assay: AVB covalent inhibition kinetics. As to conditions: A237Y^e compared with A237Y.
For assay [10], the target named is T3, TEM-1 β-lactamase A237E. Nature of the assay: AVB covalent inhibition kinetics. As to conditions: A237E TEM-1.
Assay [11] has as its target T4, TEM-1 β-lactamase WT. The experiment in a line: AVB covalent inhibition kinetics.
For assay [12], the target named is T1, TEM-1 β-lactamase A237W. The experiment in a line: AVB covalent inhibition kinetics. As to conditions: A237W TEM-1.
Assay [13] addresses T6, TEM-1 β-lactamase A237R. The experiment in a line: AVB covalent inhibition kinetics. As to conditions: A237R TEM-1.

For the compound `CC1(C)S[C@@H]2[C@H](NC(=O)Cc3ccccc3)C(=O)N2[C@H]1C(=O)O` [PenG, penicillin G], the “PenG acylation rate, kac” value is 1390 [1366, 1415] s^−1 in [1]; 86.1 [69.2, 97.0] s^−1 in assay [2]; 5857 [5288, 6012] s^−1 in assay [3]; 4941 [4784, 5086] s^−1 in assay [4] (WT TEM-1, median [68.25% confidence interval]); 2838 [2740, 2940] s^−1 in [5]; 3265 [3137, 3396] s^−1 in [6]. For the same compound, in [4] (WT TEM·PenG, field −171 MV/cm), the “enhancement of kac by the active site electric field” value was 8.6 orders of magnitude.

Turning to `NC(=O)[C@@H]1CC[C@@H]2CN1C(=O)N2OS(=O)(=O)O` [AVB, avibactam], the “AVB carbamylation rate, kcbm” value in assay [7] was 6.19 ± 0.08 s⁻¹; in assay [8] it was “(1.8 ± 0.1) × 10^−3 s^−1”; in assay [10], 4.63 ± 0.23 s⁻¹; in [11] (WT TEM-1), 23.1 ± 0.2 s⁻¹; in assay [12] it was 3.31 ± 0.05 s⁻¹; in assay [13] it was 3.63 ± 0.03 s⁻¹. Also, the “AVB recyclization rate, krec” value was “(1.7 ± 0.3) × 10^−3 s^−1” in [7]; “(3.4 ± 0.1) × 10^−7 s^−1” in assay [8]; “(8.7 ± 1.5) × 10^−5 s^−1” in [10]; “(2.3 ± 0.3) × 10^−4 s^−1” in [11] (WT TEM-1); “(6.7 ± 1.3) × 10^−4 s^−1” in assay [12]; “(6.2 ± 0.9) × 10^−4 s^−1” in assay [13]. In addition, the “decrease in kcbm, factor” value in assay [9] is 3.5 × 10^3. For the same compound, the “decrease in krec, factor” value in [9] is listed as 5.0 × 10^3. The “enhancement of kcbm by the active site electric field” value in assay [11] (WT TEM·AVB, field −150 MV/cm) was 7.5 orders of magnitude. The “acceleration of recyclization by the active site electric field” value in assay [11] (WT TEM−AVB, field −97 MV/cm) is 4.9 orders of magnitude.

Source of the values: publication PMC10066720 (Journal of the American Chemical Society, 2022).
